Literature values as cited in patent US11229674B1, “Nutraceuticals for suppressing indolamine 2,3 deoxygenase” (Therapeutic Solutions International, Inc., priority 2020, dated 2022).

Key:
IDO [1] = target: T1, IDO (Mus musculus, UniProt P28776); conditions: pregnant mice, allogeneic fetuses
T1 construct: host or cells: tumour-bearing mice (whole animal)

IDO [2] = target: T1, IDO; conditions: mice, combined with chemotherapeutic agents

T1 sequence (P28776 whole entry): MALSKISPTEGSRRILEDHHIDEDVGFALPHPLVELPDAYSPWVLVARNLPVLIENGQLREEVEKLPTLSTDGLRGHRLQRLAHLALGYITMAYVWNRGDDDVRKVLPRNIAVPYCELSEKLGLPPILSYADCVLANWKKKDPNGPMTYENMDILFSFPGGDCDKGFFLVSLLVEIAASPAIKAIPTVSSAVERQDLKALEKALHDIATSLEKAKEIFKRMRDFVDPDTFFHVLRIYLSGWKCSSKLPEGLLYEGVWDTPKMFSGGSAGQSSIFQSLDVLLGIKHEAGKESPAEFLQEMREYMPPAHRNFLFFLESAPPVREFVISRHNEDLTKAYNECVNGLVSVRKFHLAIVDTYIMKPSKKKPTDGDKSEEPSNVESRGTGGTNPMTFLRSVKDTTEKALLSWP

Cn1cc(CC(N)C(=O)O)c2ccccc21 (centres unmarked) [1MT]
Fetal allograft rejection (IDO [1]): rapid, T cell-induced rejection of all allogeneic concept
Tumor growth (IDO [2]): synergize with chemotherapeutic agents to reduce tumor growth
